Species: Rattus norvegicus
Test: DrugMatrix - Regimen: Daily Repeat
Assay type: toxicity, organism-based, Sprague-Dawley
Design: regimen Daily Repeat, gender Male, age 6-8 weeks
Conditions: in vivo, po, route oral GAVAGE, vehicle .5 % CMC; for ABSOLUTE BASOPHIL / BASOPHIL / EOSINOPHIL / ERYTHROCYTE COUNT / HEMATOCRIT / HEMOGLOBIN / LEUKOCYTE COUNT / LYMPHOCYTE / MEAN CORPUSCULAR HEMOGLOBIN / MEAN CORPUSCULAR HEMOGLOBIN CONCENTRATION / MEAN CORPUSCULAR VOLUME / MONOCYTE / NEUTROPHIL / PLATELET COUNT: tissue Blood; for ALANINE AMINOTRANSFERASE / ALKALINE PHOSPHATASE / ASPARTATE AMINOTRANSFERASE / BLOOD UREA NITROGEN / CHLORIDE / CHOLESTEROL / CREATINE PHOSPHOKINASE / CREATININE / GLUCOSE / PHOSPHORUS / POTASSIUM / SODIUM / TOTAL BILIRUBIN / TOTAL PROTEIN: tissue Plasma
[1] = 0 mg/kg, 72 h, dose level Control, time 3 day
[2] = 0 mg/kg, 120 h, dose level Control, time 5 day
[3] = 20 mg/kg, 72 h, dose level Low, time 3 day
[4] = 20 mg/kg, 120 h, dose level Low, time 5 day
[5] = 89 mg/kg, 72 h, dose level High, time 3 day
[6] = 89 mg/kg, 120 h, dose level High, time 5 day

CC(C(=O)O)c1ccc2oc(-c3ccc(Cl)cc3)nc2c1 (configuration not stated) [BENOXAPROFEN]
ABSOLUTE BASOPHIL [1]: 16.7 cells/µL | BASOPHIL [1]: 0.17% | EOSINOPHIL [1]: 0.62% | ERYTHROCYTE COUNT [1]: 6.55 x10E6/uL | HEMATOCRIT [1]: 42% | HEMOGLOBIN [1]: 13.48 G/DL | LEUKOCYTE COUNT [1]: 8.79 x10E3/uL | LYMPHOCYTE [1]: 76.98% | MEAN CORPUSCULAR HEMOGLOBIN [1]: 20.57 pg | MEAN CORPUSCULAR HEMOGLOBIN CONCENTRATION [1]: 32.08 G/DL | MEAN CORPUSCULAR VOLUME [1]: 64.1 fL | MONOCYTE [1]: 2.12% | NEUTROPHIL [1]: 19% | PLATELET COUNT [1]: 1432.17 x10E3/uL | ALANINE AMINOTRANSFERASE [1]: 42.83 u/L | ALKALINE PHOSPHATASE [1]: 328.5 u/L | ASPARTATE AMINOTRANSFERASE [1]: 78.33 u/L | BLOOD UREA NITROGEN [1]: 14.5 mg/dL | CHLORIDE [1]: 104.5 MEQ/L | CHOLESTEROL [1]: 78.67 mg/dL | CREATINE PHOSPHOKINASE [1]: 282.33 u/L | CREATININE [1]: 0.25 mg/dL | GLUCOSE [1]: 173.67 mg/dL | PHOSPHORUS [1]: 12.83 mg/dL | POTASSIUM [1]: 6.7 MEQ/L | SODIUM [1]: 145.83 MEQ/L | TOTAL BILIRUBIN [1]: 0.4 mg/dL | TOTAL PROTEIN [1]: 5.93 G/DL | ABSOLUTE BASOPHIL [2]: 28 cells/µL | BASOPHIL [2]: 0.26% | EOSINOPHIL [2]: 0.44% | ERYTHROCYTE COUNT [2]: 6.99 x10E6/uL | HEMATOCRIT [2]: 45.12% | HEMOGLOBIN [2]: 14.26 G/DL | LEUKOCYTE COUNT [2]: 9.42 x10E3/uL | LYMPHOCYTE [2]: 79.92% | MEAN CORPUSCULAR HEMOGLOBIN [2]: 20.44 pg | MEAN CORPUSCULAR HEMOGLOBIN CONCENTRATION [2]: 31.62 G/DL | MEAN CORPUSCULAR VOLUME [2]: 64.6 fL | MONOCYTE [2]: 2.2% | NEUTROPHIL [2]: 16.14% | PLATELET COUNT [2]: 1062.2 x10E3/uL | ALANINE AMINOTRANSFERASE [2]: 44 u/L | ALKALINE PHOSPHATASE [2]: 342.6 u/L | ASPARTATE AMINOTRANSFERASE [2]: 74.17 u/L | BLOOD UREA NITROGEN [2]: 13 mg/dL | CHLORIDE [2]: 103 MEQ/L | CHOLESTEROL [2]: 72.83 mg/dL | CREATINE PHOSPHOKINASE [2]: 184.67 u/L | CREATININE [2]: 0.47 mg/dL | GLUCOSE [2]: 168.17 mg/dL | PHOSPHORUS [2]: 12.27 mg/dL | POTASSIUM [2]: 6.98 MEQ/L | SODIUM [2]: 147 MEQ/L | TOTAL BILIRUBIN [2]: 0.65 mg/dL | TOTAL PROTEIN [2]: 6.23 G/DL | ABSOLUTE BASOPHIL [3]: 20 cells/µL | BASOPHIL [3]: 0.23% | EOSINOPHIL [3]: 0.43% | ERYTHROCYTE COUNT [3]: 6.67 x10E6/uL | HEMATOCRIT [3]: 42.8% | HEMOGLOBIN [3]: 13.83 G/DL | LEUKOCYTE COUNT [3]: 10.28 x10E3/uL | LYMPHOCYTE [3]: 78.07% | MEAN CORPUSCULAR HEMOGLOBIN [3]: 20.73 pg | MEAN CORPUSCULAR HEMOGLOBIN CONCENTRATION [3]: 32.33 G/DL | MEAN CORPUSCULAR VOLUME [3]: 64.2 fL | MONOCYTE [3]: 2.7% | NEUTROPHIL [3]: 16.57% | PLATELET COUNT [3]: 1248 x10E3/uL | ALANINE AMINOTRANSFERASE [3]: 44.67 u/L | ALKALINE PHOSPHATASE [3]: 316.67 u/L | ASPARTATE AMINOTRANSFERASE [3]: 75.67 u/L | BLOOD UREA NITROGEN [3]: 13.33 mg/dL | CHLORIDE [3]: 104.33 MEQ/L | CHOLESTEROL [3]: 64.33 mg/dL | CREATINE PHOSPHOKINASE [3]: 179 u/L | CREATININE [3]: 0.33 mg/dL | GLUCOSE [3]: 176.67 mg/dL | PHOSPHORUS [3]: 12.2 mg/dL | POTASSIUM [3]: 6.37 MEQ/L | SODIUM [3]: 146.33 MEQ/L | TOTAL BILIRUBIN [3]: 0.37 mg/dL | TOTAL PROTEIN [3]: 5.7 G/DL | ABSOLUTE BASOPHIL [4]: 56.7 cells/µL | BASOPHIL [4]: 0.6% | EOSINOPHIL [4]: 0.53% | ERYTHROCYTE COUNT [4]: 7.47 x10E6/uL | HEMATOCRIT [4]: 48.6% | HEMOGLOBIN [4]: 15.37 G/DL | LEUKOCYTE COUNT [4]: 8.81 x10E3/uL | LYMPHOCYTE [4]: 79.3% | MEAN CORPUSCULAR HEMOGLOBIN [4]: 20.53 pg | MEAN CORPUSCULAR HEMOGLOBIN CONCENTRATION [4]: 31.57 G/DL | MEAN CORPUSCULAR VOLUME [4]: 65.03 fL | MONOCYTE [4]: 2.53% | NEUTROPHIL [4]: 15.73% | PLATELET COUNT [4]: 1097 x10E3/uL | ALKALINE PHOSPHATASE [4]: 357.67 u/L | ASPARTATE AMINOTRANSFERASE [4]: 65 u/L | BLOOD UREA NITROGEN [4]: 13.33 mg/dL | CHLORIDE [4]: 104.67 MEQ/L | CHOLESTEROL [4]: 59.33 mg/dL | CREATINE PHOSPHOKINASE [4]: 158.33 u/L | CREATININE [4]: 0.43 mg/dL | GLUCOSE [4]: 175.33 mg/dL | PHOSPHORUS [4]: 12.03 mg/dL | POTASSIUM [4]: 7.37 MEQ/L | SODIUM [4]: 150.67 MEQ/L | TOTAL BILIRUBIN [4]: 0.33 mg/dL | TOTAL PROTEIN [4]: 6.43 G/DL | ABSOLUTE BASOPHIL [5]: 46.7 cells/µL | BASOPHIL [5]: 0.87% | EOSINOPHIL [5]: 0.43% | ERYTHROCYTE COUNT [5]: 5.74 x10E6/uL | HEMATOCRIT [5]: 35.5% | HEMOGLOBIN [5]: 11.63 G/DL | LEUKOCYTE COUNT [5]: 4.56 x10E3/uL | LYMPHOCYTE [5]: 64.07% | MEAN CORPUSCULAR HEMOGLOBIN [5]: 20.27 pg | MEAN CORPUSCULAR HEMOGLOBIN CONCENTRATION [5]: 32.8 G/DL | MEAN CORPUSCULAR VOLUME [5]: 61.93 fL | MONOCYTE [5]: 4.3% | NEUTROPHIL [5]: 29.23% | PLATELET COUNT [5]: 1116 x10E3/uL | ALANINE AMINOTRANSFERASE [5]: 30.67 u/L | ALKALINE PHOSPHATASE [5]: 216.33 u/L | ASPARTATE AMINOTRANSFERASE [5]: 71 u/L | BLOOD UREA NITROGEN [5]: 13 mg/dL | CHLORIDE [5]: 105 MEQ/L | CHOLESTEROL [5]: 81 mg/dL | CREATINE PHOSPHOKINASE [5]: 293 u/L | CREATININE [5]: 0.37 mg/dL | GLUCOSE [5]: 179 mg/dL | PHOSPHORUS [5]: 11.33 mg/dL | POTASSIUM [5]: 6.47 MEQ/L | SODIUM [5]: 142.33 MEQ/L | TOTAL BILIRUBIN [5]: 0.33 mg/dL | TOTAL PROTEIN [5]: 4.93 G/DL | ABSOLUTE BASOPHIL [6]: 80 cells/µL | BASOPHIL [6]: 0.75% | EOSINOPHIL [6]: 0.5% | ERYTHROCYTE COUNT [6]: 3.39 x10E6/uL | HEMATOCRIT [6]: 21.15% | HEMOGLOBIN [6]: 6.75 G/DL | LEUKOCYTE COUNT [6]: 9.48 x10E3/uL | LYMPHOCYTE [6]: 62% | MEAN CORPUSCULAR HEMOGLOBIN [6]: 20.05 pg | MEAN CORPUSCULAR HEMOGLOBIN CONCENTRATION [6]: 32.38 G/DL | MEAN CORPUSCULAR VOLUME [6]: 61.98 fL | MONOCYTE [6]: 3.5% | NEUTROPHIL [6]: 36% | PLATELET COUNT [6]: 1019.25 x10E3/uL | ALANINE AMINOTRANSFERASE [6]: 205.75 u/L | ALKALINE PHOSPHATASE [6]: 329.75 u/L | ASPARTATE AMINOTRANSFERASE [6]: 292.5 u/L | BLOOD UREA NITROGEN [6]: 38.75 mg/dL | CHLORIDE [6]: 103.5 MEQ/L | CHOLESTEROL [6]: 101 mg/dL | CREATINE PHOSPHOKINASE [6]: 255.75 u/L | CREATININE [6]: 0.33 mg/dL | GLUCOSE [6]: 163.25 mg/dL | PHOSPHORUS [6]: 10.22 mg/dL | POTASSIUM [6]: 5.38 MEQ/L | SODIUM [6]: 143.25 MEQ/L | TOTAL BILIRUBIN [6]: 0.42 mg/dL | TOTAL PROTEIN [6]: 4.65 G/DL
